Measured values from the supplement of paper PMC10307832.

Columns and labels:
Assay in all cases: relative viability (nuclei count vs DMSO), 5 days (fraction); higher = more cells survive
Dinaciclib = compound: CCc1cnn2c(NCc3ccc[n+]([O-])c3)cc(N3CCCC[C@H]3CCO)nc12 [Dinaciclib]
Summary of the method: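 Five library-drug doses spaced by √10 were pinned onto vehicle-anchored 1536-well plates of lung cancer cell lines that had been kept overnight at 37 °C. Cells went 5 days without medium change, then were fixed, permeabilised and Hoechst-stained together, imaged at 4× and counted by MetaXpress. Viability is the ratio of treated-well to vehicle-well nuclei, taken as a median over plates. Plates required control CV below 25% and at least one doubling.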

Dinaciclib + Navitoclax = compound: CCc1cnn2c(NCc3ccc[n+]([O-])c3)cc(N3CCCC[C@H]3CCO)nc12 [Dinaciclib] + CC1(C)CCC(c2ccc(Cl)cc2)=C(CN2CCN(c3ccc(C(=O)NS(=O)(=O)c4ccc(N[C@H](CCN5CCOCC5)CSc5ccccc5)c(S(=O)(=O)C(F)(F)F)c4)cc3)CC2)C1 [Navitoclax] (partner 0.5 µM)
Summary of the method: (§1)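 The day after seeding in 1536-well plates, lung cancer cell lines were treated by pin tool with a single drug, or with a fixed anchor-drug dose together with five library-drug doses (not always all listed) in √10 steps. After 5 days, a combined fix-and-stain solution (final 0.05% Triton X-100, 1% formaldehyde, 1 ug/ml Hoechst) was added. Nuclei counted on 4× images gave relative viability as treated counts over vehicle counts, reported as the median of duplicate plates.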

Dinaciclib + Linsitinib = compound: CCc1cnn2c(NCc3ccc[n+]([O-])c3)cc(N3CCCC[C@H]3CCO)nc12 [Dinaciclib] + C[C@]1(O)C[C@@H](c2nc(-c3ccc4ccc(-c5ccccc5)nc4c3)c3c(N)nccn32)C1 [Linsitinib] (partner 1 µM)
Summary of the method: as §1

Dinaciclib + Bortezomib = compound: CCc1cnn2c(NCc3ccc[n+]([O-])c3)cc(N3CCCC[C@H]3CCO)nc12 [Dinaciclib] + CC(C)C[C@H](NC(=O)[C@H](Cc1ccccc1)NC(=O)c1cnccn1)B(O)O [Bortezomib] (partner 0.002 µM)
Summary of the method: as §1

Dinaciclib + Crizotinib = compound: CCc1cnn2c(NCc3ccc[n+]([O-])c3)cc(N3CCCC[C@H]3CCO)nc12 [Dinaciclib] + C[C@@H](Oc1cc(-c2cnn(C3CCNCC3)c2)cnc1N)c1c(Cl)ccc(F)c1Cl [Crizotinib] (partner 1 µM)
Summary of the method: as §1

Dinaciclib + Pictilisib = compound: CCc1cnn2c(NCc3ccc[n+]([O-])c3)cc(N3CCCC[C@H]3CCO)nc12 [Dinaciclib] + CS(=O)(=O)N1CCN(Cc2cc3nc(-c4cccc5[nH]ncc45)nc(N4CCOCC4)c3s2)CC1 [Pictilisib] (partner 1 µM)
Summary of the method: as §1

Dinaciclib + Lapatinib = compound: CCc1cnn2c(NCc3ccc[n+]([O-])c3)cc(N3CCCC[C@H]3CCO)nc12 [Dinaciclib] + CS(=O)(=O)CCNCc1ccc(-c2ccc3ncnc(Nc4ccc(OCc5cccc(F)c5)c(Cl)c4)c3c2)o1 [Lapatinib] (partner 2 µM)
Summary of the method: as §1

Dinaciclib + Foretinib = compound: CCc1cnn2c(NCc3ccc[n+]([O-])c3)cc(N3CCCC[C@H]3CCO)nc12 [Dinaciclib] + COc1cc2c(Oc3ccc(NC(=O)C4(C(=O)Nc5ccc(F)cc5)CC4)cc3F)ccnc2cc1OCCCN1CCOCC1 [Foretinib] (partner 0.25 µM)
Summary of the method: as §1

Dinaciclib + Olaparib = compound: CCc1cnn2c(NCc3ccc[n+]([O-])c3)cc(N3CCCC[C@H]3CCO)nc12 [Dinaciclib] + O=C(c1cc(Cc2n[nH]c(=O)c3ccccc23)ccc1F)N1CCN(C(=O)C2CC2)CC1 [Olaparib] (partner 8 µM)
Summary of the method: as §1

Dinaciclib + Alpelisib = compound: CCc1cnn2c(NCc3ccc[n+]([O-])c3)cc(N3CCCC[C@H]3CCO)nc12 [Dinaciclib] + Cc1nc(NC(=O)N2CCC[C@H]2C(N)=O)sc1-c1ccnc(C(C)(C)C(F)(F)F)c1 [Alpelisib] (partner 2 µM)
Summary of the method: as §1

Cell Line	relative viability (Dinaciclib; 0.009487 µM)	relative viability (Dinaciclib; 0.03 µM)	relative viability (Dinaciclib; 0.09487 µM)	relative viability (Dinaciclib; 0.3 µM)	relative viability (Dinaciclib + Navitoclax; first compound 0.009487 µM)	relative viability (Dinaciclib + Navitoclax; first compound 0.03 µM)	relative viability (Dinaciclib + Navitoclax; first compound 0.09487 µM)	relative viability (Dinaciclib + Navitoclax; first compound 0.3 µM)	relative viability (Dinaciclib + Linsitinib; first compound 0.009487 µM)	relative viability (Dinaciclib + Linsitinib; first compound 0.03 µM)	relative viability (Dinaciclib + Linsitinib; first compound 0.09487 µM)	relative viability (Dinaciclib + Linsitinib; first compound 0.3 µM)	relative viability (Dinaciclib + Bortezomib; first compound 0.009487 µM)	relative viability (Dinaciclib + Bortezomib; first compound 0.03 µM)	relative viability (Dinaciclib + Bortezomib; first compound 0.09487 µM)	relative viability (Dinaciclib + Bortezomib; first compound 0.3 µM)	relative viability (Dinaciclib + Crizotinib; first compound 0.009487 µM)	relative viability (Dinaciclib + Crizotinib; first compound 0.03 µM)	relative viability (Dinaciclib + Crizotinib; first compound 0.09487 µM)	relative viability (Dinaciclib + Crizotinib; first compound 0.3 µM)	relative viability (Dinaciclib + Pictilisib; first compound 0.009487 µM)	relative viability (Dinaciclib + Pictilisib; first compound 0.03 µM)	relative viability (Dinaciclib + Pictilisib; first compound 0.09487 µM)	relative viability (Dinaciclib + Pictilisib; first compound 0.3 µM)	relative viability (Dinaciclib + Lapatinib; first compound 0.009487 µM)	relative viability (Dinaciclib + Lapatinib; first compound 0.03 µM)	relative viability (Dinaciclib + Lapatinib; first compound 0.09487 µM)	relative viability (Dinaciclib + Lapatinib; first compound 0.3 µM)	relative viability (Dinaciclib + Foretinib; first compound 0.009487 µM)	relative viability (Dinaciclib + Foretinib; first compound 0.03 µM)	relative viability (Dinaciclib + Foretinib; first compound 0.09487 µM)	relative viability (Dinaciclib + Foretinib; first compound 0.3 µM)	relative viability (Dinaciclib + Olaparib; first compound 0.009487 µM)	relative viability (Dinaciclib + Olaparib; first compound 0.03 µM)	relative viability (Dinaciclib + Olaparib; first compound 0.09487 µM)	relative viability (Dinaciclib + Olaparib; first compound 0.3 µM)	relative viability (Dinaciclib + Alpelisib; first compound 0.009487 µM)	relative viability (Dinaciclib + Alpelisib; first compound 0.03 µM)	relative viability (Dinaciclib + Alpelisib; first compound 0.09487 µM)	relative viability (Dinaciclib + Alpelisib; first compound 0.3 µM)
Calu-6	0.969	0.145	0.117	0.131	0.524	0.0805	0.0782	0.0765	1.02	0.0954	0.0924	0.103	0.54	0.128	0.133	0.123	0.619	0.208	0.0928	0.126	0.523	0.113	0.116	0.114	0.914	0.112	0.13	0.134	0.757	0.0769	0.0773	0.0929	0.527	0.111	0.1	0.109	0.498	0.133	0.118	0.128
EBC-1	0.875	0.149	0.108	0.141	0.307	0.138	0.136	0.163	0.977	0.228	0.101	0.127	0.452	0.133	0.152	0.146	0.198	0.159	0.151	0.136	0.283	0.117	0.109	0.142	0.21	0.16	0.168	0.157	0.0927	0.0992	0.106	0.106	0.737	0.132	0.126	0.106	0.501	0.138	0.123	0.141
